Test results published in patent publication US11224601B1, “Compounds that inhibits MCL-1 protein” (priority 2017, dated 2022).
Where two headings read alike, the source gives them in different places.

What was measured:
[1] = target: recombinant human Mcl-1 (Mcl-1/Bim interaction) (Homo sapiens (Human), UniProt Q07820); assay: biochemical; assay type: binding; conditions: cell free Mcl-1:Bim TR-FRET; read-out: Mcl-1 HTRF IC50
Description: Cell free Mcl-1:Bim Affinity Assay (Mcl-1 HTRF)
The inhibition of the Mcl-1/Bim interaction was measured using a time-resolved fluorescence resonance energy transfer (TR-FRET) assay. The recombinant human Mcl-1 (C-terminally 6×His tagged Mcl-1 containing residues 171-327) was generated at Amgen Inc (Thousand Oaks, Calif.). A biotinylated peptide derived from human Bim (residues 51-76) was purchased from CPC Scientific (San Jose, Calif.). The TR-FRET assay was conducted in a 384-well white OptiPlate™ (PerkinElmer, Waltham, Mass.) in a total volume of 40 μL. The reaction mixture contained 0.1 nM Mcl-1(171-327), 0.05 nM biotin-Bim(51-76), 0.05 nM LANCE® Eu-W1024 Anti-6×His (PerkinElmer), 0.072 nM Streptavidin-Xlent (Cisbio, Bedford, Mass.), and serially diluted test compounds in the binding buffer of 20 mM Hepes, pH 7.5, 150 mM NaCl, 0.016 mM Brij® 35, and 1 mM dithiothreitol. Test compounds were pre-incubated with Mcl-1(171-327) and biotin-Bim (51-76) for 60 min before addition of the detection mixture (LANCE® Eu-W1024 Anti-6×His and Streptavidin-Xlent). The reaction plates were further incubated overnight and then were read on an Envision® multimode reader (PerkinElmer). Fluorescence signals were measured at 620 nm (40-nm bandwidth) and 665 nm (7.5-nm bandwidth) with a 60 μs delay after excitation at 320 nm (75-nm bandwidth). The signal ratio at 665/620 nm corresponded to the Mcl-1/Bim interaction and was used in all data analyses. The IC50 values of test compounds were determined from duplicate data by analyzing competition curves using a four-parameter sigmoidal model in GraphPad Prism (GraphPad Software, San Diego, Calif.) or in Genedata Screener® (Genedata, Basel, Switzerland).

[2] = test system: OPM-2 human multiple myeloma cell line; assay: Cell Viability Assay (OPM-2 10 FBS), CellTiter-Glo; assay type: cell-based
Description: Cell Viability Assay (OPM-2 10 FBS)
The human multiple myeloma cell line, OPM-2, was cultured in complete growth medium containing RPMI 1640 and 10% fetal bovine serum (FBS). Cells were seeded into 384-well plates at 3000 cells/well density in complete growth medium containing 10% FBS, and incubated for 16 h with serially diluted test compounds in a 37° C. incubator with 5% CO2. Cell viability was tested using CellTiter-Glo® assay (Promega, Madison, Wis.) according to the manufacturer recommendations. Luminescence was determined using an EnVision® Multilabel plate reader 25 min after the addition of detection reagent. IC50 values were then calculated with Xlfit using a logistical 4-parameter fit model in GraphPad Prism (GraphPad Software, San Diego, Calif.) or in Genedata Screener® (Genedata, Basel, Switzerland).

[3] = Homo sapiens, OPM-2, 16 h, read-out: OPM-2 10% FBS IC50 IP (μM), OPM-2 cells, 10% FBS, 16 h, CellTiter-Glo

Chain of recombinant human Mcl-1 (Mcl-1/Bim interaction) (Q07820 171-327): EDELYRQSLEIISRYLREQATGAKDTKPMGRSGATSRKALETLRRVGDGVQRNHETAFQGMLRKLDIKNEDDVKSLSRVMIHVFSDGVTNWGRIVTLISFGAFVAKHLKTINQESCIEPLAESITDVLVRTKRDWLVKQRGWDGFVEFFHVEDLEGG

| Compound | IC50 [1] | IC50 [2, 3] | IC50 ([2]; read-out: OPM-2 10% FBS IC50 IP, OPM-2 cells, 10% FBS, 16 h, CellTiter-Glo) |
| --- | --- | --- | --- |
| CO[C@@]1(CN2CCN3CCCC[C@@H]3C2)/C=C/C[C@H](C)[C@@H](Cc2ccccc2)S(=O)(=O)NC(=O)c2ccc3c(c2)N(C[C@@H]2CC[C@H]21)C[C@@]1(CCCc2cc(Cl)ccc21)CO3 (single isomer, unassigned) [Example 104] | 1.12 nM | 0.782 µM |  |
| CO[C@@]1(CN2CCN3CCN(C)CC3C2)/C=C/C[C@H](C)[C@@H](C)S(=O)(=O)NC(=O)c2ccc3c(c2)N(C[C@@H]2CC[C@H]21)C[C@@]1(CCCc2cc(Cl)ccc21)CO3 (single isomer, unassigned) [Example 216] | 0.49 nM | 0.183 µM |  |
| CO[C@@]1(CN2CCN3CCC[C@@H]3C2)/C=C/C[C@H](C)[C@@H](C)S(=O)(=O)NC(=O)c2ccc3c(c2)N(C[C@@H]2CC[C@H]21)C[C@@]1(CCCc2cc(Cl)ccc21)CO3 (stereo in doubt) [Example 80] | 1.55 nM | 0.205 µM |  |
| CO[C@]1(CN2CCN3CCCCC[C@@H]3C2)/C=C/C[C@H](C)[C@@H](C)S(=O)(=O)NC(=O)c2ccc3c(c2)N(C[C@@H]2CC[C@H]21)C[C@@]1(CCCc2cc(Cl)ccc21)CO3 (stereo in doubt) [Example 87] | 0.127 nM | 0.141 µM |  |
| CO[C@]1(CN2CCN3CCN(C(C)=O)C[C@@H]3C2)/C=C/C[C@H](C)[C@@H](C)S(=O)(=O)NC(=O)c2ccc3c(c2)N(C[C@@H]2CC[C@H]21)C[C@@]1(CCCc2cc(Cl)ccc21)CO3 (stereo in doubt) [Example 218] | 0.142 nM | 0.092 µM |  |
| CO[C@@]1(CN2CCN([C@H]3CCOC3)CC2)/C=C/C[C@H](C)[C@@H](C)S(=O)(=O)NC(=O)c2ccc3c(c2)N(C[C@@H]2CC[C@H]21)C[C@@]1(CCCc2cc(Cl)ccc21)CO3 (stereo in doubt) [Example 275] | 0.176 nM | 0.082 µM |  |
| CO[C@]1(CN2CCN3CC[C@H](F)C[C@@H]3C2)/C=C/C[C@H](C)[C@@H](C)S(=O)(=O)NC(=O)c2ccc3c(c2)N(C[C@@H]2CC[C@H]21)C[C@@]1(CCCc2cc(Cl)ccc21)CO3 (stereo in doubt) [Example 293] | 0.242 nM |  | 0.207 µM |
| CCO[C@]1(CN2CCN(C(C)C)[C@H](C)C2)/C=C/C[C@H](C)[C@@H](C)S(=O)(=O)NC(=O)c2ccc3c(c2)N(C[C@@H]2CC[C@H]21)C[C@@]1(CCCc2cc(Cl)ccc21)CO3 [Example 9, (1S,3′R,6′R,7′R,8′E,11′S,12′R)-6-chloro-7′-ethoxy-11′,12′-dimethyl-7′-(((3R)-3-methyl-4-(1-methylethyl)-1-piperazinyl)methyl)-3,4-dihydro-2H,15′H-spiro[naphthalene-1,22′-[20]oxa[13]thia[1,14]diazatetracyclo[14.7.2.0˜3,6˜.0˜19,24˜]pentacosa[8,16,18,24]tetraen]-15′-one 13′,13′-dioxide] | 0.078 nM | 0.05 µM |  |
| CCO[C@]1(CN2CCN(C(C)C)[C@H](C)C2)/C=C/C[C@H](C)[C@@H](CCOC)S(=O)(=O)NC(=O)c2ccc3c(c2)N(C[C@@H]2CC[C@H]21)C[C@@]1(CCCc2cc(Cl)ccc21)CO3 [Example 17, (1S,3′R,6′R,7′R,8′E,11′S,12′R)-6-chloro-7′-ethoxy-12′-(2-methoxyethyl)-11′-methyl-7′-(((3R)-3-methyl-4-(1-methylethyl)-1-piperazinyl)methyl)-3,4-dihydro-2H,15′H-spiro[naphthalene-1,22′-[20]oxa[13]thia[1,14]diazatetracyclo[14.7.2.0˜3,6˜.0˜19,24˜]pentacosa[8,16,18,24]tetraen]-15′-one 13′,13′-dioxide] | 0.073 nM | 0.034 µM |  |
| COCC[C@@H]1[C@@H](C)C/C=C/[C@](CN2CCN3CCOC[C@@H]3C2)(OC)[C@@H]2CC[C@H]2CN2C[C@@]3(CCCc4cc(Cl)ccc43)COc3ccc(nc32)C(=O)NS1(=O)=O [Example 20, (1S,3′R,6′R,7′S,8′E,11′S,12′R)-6-chloro-7′-((9aS)-hexahydropyrazino[2,1-c][1,4]oxazin-8(1H)-ylmethyl)-7′-methoxy-12′-(2-methoxyethyl)-11′-methyl-3,4-dihydro-2H,15′H-spiro[naphthalene-1,22′-[20]oxa[13]thia[1,14,25]triazatetracyclo[14.7.2.0˜3,6˜.0˜19,24˜]pentacosa[8,16,18,24]tetraen]-15′-one 13′,13′-dioxide] | 0.082 nM | 0.022 µM |  |
| COCCO[C@@]1(CN2CCN3CCCC[C@@H]3C2)/C=C/C[C@H](C)[C@@H](C)S(=O)(=O)NC(=O)c2ccc3c(c2)N(C[C@@H]2CC[C@H]21)C[C@@]1(CCCc2cc(Cl)ccc21)CO3 [Example 151, (1S,3′R,6′R,7′S,8′E,11′S,12′R)-6-chloro-7′-(2-methoxyethoxy)-11′,12′-dimethyl-7′-((9aR)-octahydro-2H-pyrido[1,2-a]pyrazin-2-ylmethyl)-3,4-dihydro-2H,15′H-spiro[naphthalene-1,22′-[20]oxa[13]thia[1,14]diazatetracyclo[14.7.2.0˜3,6˜.0˜19,24˜]pentacosa[8,16,18,24]tetraen]-15′-one 13′,13′-dioxide] | 0.843 nM | 0.462 µM |  |
| CO[C@@]1(C(=O)N(C)C)/C=C/C[C@H](C)[C@@H](C)S(=O)(=O)NC(=O)c2ccc3c(c2)N(C[C@@H]2CC[C@H]21)C[C@@]1(CCCc2cc(Cl)ccc21)CO3 [Example 176, (1S,3′R,6′R,7′S,8′E,11′S,12′R)-6-chloro-7′-methoxy-N,N,11′,12′-tetramethyl-15′-oxo-3,4-dihydro-2H-spiro[naphthalene-1,22′-[20]oxa[13]thia[1,14]diazatetracyclo[14.7.2.0˜3,6˜.0˜19,24˜]pentacosa[8,16,18,24]tetraene]-7′-carboxamide 13′,13′-dioxide] | 0.118 nM | 0.149 µM |  |
| CO[C@]1(C(=O)N(C)C)/C=C/C[C@H](C)[C@@H](C)S(=O)(=O)NC(=O)c2ccc3c(c2)N(C[C@@H]2CC[C@H]21)C[C@@]1(CCCc2cc(Cl)ccc21)CO3 [Example 177, (1S,3′R,6′R,7′R,8′E,11′S,12′R)-6-chloro-7′-methoxy-N,N,11′,12′-tetramethyl-15′-oxo-3,4-dihydro-2H-spiro[naphthalene-1,22′-[20]oxa[13]thia[1,14]diazatetracyclo[14.7.2.0˜3,6˜.0˜19,24˜]pentacosa[8,16,18,24]tetraene]-7′-carboxamide 13′,13′-dioxide] | 0.153 nM | 0.615 µM |  |
| C[C@@H]1[C@@H](C)C/C=C/[C@@](O)(CN2CCN3CCOC[C@@H]3C2)[C@@H]2CC[C@H]2CN2C[C@@]3(CCCc4cc(Cl)ccc43)COc3ccc(cc32)C(=O)NS1(=O)=O [Example 193, (1S,3′R,6′R,7′S,8′E,11′S,12′R)-6-chloro-7′-((9aS)-hexahydropyrazino[2,1-c][1,4]oxazin-8(1H)-ylmethyl)-7′-hydroxy-11′,12′-dimethyl-3,4-dihydro-2H,15′H-spiro[naphthalene-1,22′-[20]oxa[13]thia[1,14]diazatetracyclo[14.7.2.0˜3,6˜.0˜19,24˜]pentacosa[8,16,18,24]tetraen]-15′-one 13′,13′-dioxide] | 0.096 nM | 0.023 µM |  |
| C[C@@H]1[C@@H](C)C/C=C/[C@](O)(CN2CCN3CCOC[C@@H]3C2)[C@@H]2CC[C@H]2CN2C[C@@]3(CCCc4cc(Cl)ccc43)COc3ccc(cc32)C(=O)NS1(=O)=O [Example 213, (1S,3′R,6′R,7′R,8′E,11′S,12′R)-6-chloro-7′-((9aS)-hexahydropyrazino[2,1-c][1,4]oxazin-8(1H)-ylmethyl)-7′-hydroxy-11′,12′-dimethyl-3,4-dihydro-2H,15′H-spiro[naphthalene-1,22′-[20]oxa[13]thia[1,14]diazatetracyclo[14.7.2.0˜3,6˜.0˜19,24˜]pentacosa[8,16,18,24]tetraen]-15′-one 13′,13′-dioxide] | 0.239 nM | 0.4 µM |  |
| CC(C)CO[C@@]1(CN2CCN(C3COC3)CC2)/C=C/C[C@H](C)[C@@H](C)S(=O)(=O)NC(=O)c2ccc3c(c2)N(C[C@@H]2CC[C@H]21)C[C@@]1(CCCc2cc(Cl)ccc21)CO3 [Example 348, (1S,3′R,6′R,7′S,8′E,11′S,12′R)-6-chloro-11′,12′-dimethyl-7′-(2-methylpropoxy)-7′-((4-(3-oxetanyl)-1-piperazinyl)methyl)-3,4-dihydro-2H,15′H-spiro[naphthalene-1,22′-[20]oxa[13]thia[1,14]diazatetracyclo[14.7.2.0˜3,6˜.0˜19,24˜]pentacosa[8,16,18,24]tetraen]-15′-one 13′,13′-dioxide] | 2.62 nM | 5.36 µM |  |
| CO[C@]1(CN2CCN3CCCC[C@@H]3C2)/C=C/C[C@H](C)[C@@H](CCO)S(=O)(=O)NC(=O)c2ccc3c(c2)N(C[C@@H]2CC[C@H]21)C[C@@]1(CCCc2cc(Cl)ccc21)CO3 [Example 358, (1S,3′R,6′R,7′R,8′E,11′S,12′R)-6-chloro-12′-(2-hydroxyethyl)-7′-methoxy-11′-methyl-7′-((9aR)-octahydro-2H-pyrido[1,2-a]pyrazin-2-ylmethyl)-3,4-dihydro-2H,15′H-spiro[naphthalene-1,22′-[20]oxa[13]thia[1,14]diazatetracyclo[14.7.2.0˜3,6˜.0˜19,24˜]pentacosa[8,16,18,24]tetraen]-15′-one 13′,13′-dioxide] | 0.066 nM | 0.144 µM |  |
